Converted amounts (≈) assume the structure as drawn.
Assays:
[1] = biological target: T1, Eukaryotic translation initiation factor 2-alpha kinase 3 (Homo sapiens, UniProt Q9NZJ5); test: Inhibition of PEK in human MOLM16 cells; format: cell-based
T1 sequence (Q9NZJ5 whole entry): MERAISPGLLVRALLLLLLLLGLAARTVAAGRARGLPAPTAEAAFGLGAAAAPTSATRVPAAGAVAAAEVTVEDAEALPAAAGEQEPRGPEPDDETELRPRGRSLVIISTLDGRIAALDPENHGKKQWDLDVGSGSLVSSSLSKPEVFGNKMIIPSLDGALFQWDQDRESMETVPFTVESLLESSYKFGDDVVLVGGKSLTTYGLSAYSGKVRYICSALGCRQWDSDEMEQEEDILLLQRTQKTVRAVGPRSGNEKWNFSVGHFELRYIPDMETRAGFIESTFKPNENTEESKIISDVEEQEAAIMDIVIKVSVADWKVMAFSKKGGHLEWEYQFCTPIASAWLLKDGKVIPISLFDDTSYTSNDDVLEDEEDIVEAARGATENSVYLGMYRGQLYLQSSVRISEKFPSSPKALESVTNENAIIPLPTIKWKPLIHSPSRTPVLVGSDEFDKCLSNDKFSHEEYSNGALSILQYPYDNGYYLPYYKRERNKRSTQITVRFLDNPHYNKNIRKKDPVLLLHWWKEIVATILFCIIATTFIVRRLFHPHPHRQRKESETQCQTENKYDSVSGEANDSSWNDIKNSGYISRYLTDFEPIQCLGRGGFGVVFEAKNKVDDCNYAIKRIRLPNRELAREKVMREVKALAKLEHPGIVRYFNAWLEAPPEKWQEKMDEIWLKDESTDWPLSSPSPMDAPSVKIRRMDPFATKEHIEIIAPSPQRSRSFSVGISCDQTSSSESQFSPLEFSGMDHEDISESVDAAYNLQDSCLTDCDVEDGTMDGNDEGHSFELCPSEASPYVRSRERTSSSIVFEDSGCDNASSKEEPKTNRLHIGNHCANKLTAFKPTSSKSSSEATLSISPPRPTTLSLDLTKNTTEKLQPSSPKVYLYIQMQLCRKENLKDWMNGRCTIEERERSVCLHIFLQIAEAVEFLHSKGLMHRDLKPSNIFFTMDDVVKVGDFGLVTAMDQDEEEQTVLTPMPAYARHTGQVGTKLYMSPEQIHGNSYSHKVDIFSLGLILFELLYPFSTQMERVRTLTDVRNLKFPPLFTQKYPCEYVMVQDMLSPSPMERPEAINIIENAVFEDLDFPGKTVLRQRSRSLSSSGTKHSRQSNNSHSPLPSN

[2] = Apparent permeability across apical to basolateral in human Caco-2 cells at 5 uM measured after 120 mins by UPLC-MS/MS analysis
[3] = Intrinsic clearance in rat hepatocytes assessed per 10^4 cells at 1 uM measured upto 120 mins by UPLC-MS/MS analysis; format: ADME, cell-based, Hepatocyte; conditions: 2 h
[4] = Antitumor activity against human MOLM16 cells xenografted in BALB/c nude mouse assessed as tumor growth inhibition at 1 mg/kg administered twice a day for 17 days; format: functional, MOLM-16; conditions: MOLM16, 408 h, time 17 day, read-out: TGI
[5] = Antitumor activity against human MOLM16 cells xenografted in BALB/c nude mouse assessed as tumor growth inhibition at 3 mg/kg administered twice a day for 17 days; format: functional, MOLM-16; conditions: MOLM16, 408 h, time 17 day, read-out: TGI
[6] = physchem; conditions: FaSSIF
Description: Thermodynamic solubility in FaSSIF at 1 mg incubated for 24 hrs by UPLC-MS/MS analysis

[7] = Unbound Cmax in BALB/c mouse at 3 mg/kg, po and 1 mg/kg, iv measured upto 24 hrs; format: ADME, organism-based; conditions: in vivo
[8] = Unbound clearance in BALB/c mouse plasma at 3 mg/kg, po and 1 mg/kg, iv measured upto 24 hrs; format: ADME, organism-based; conditions: in vivo
[9] = physchem; conditions: SGF
Description: Thermodynamic solubility in SGF at 1 mg incubated for 24 hrs by UPLC-MS/MS analysis

[10] = Half-life in BALB/c mouse at 3 mg/kg, po and 1 mg/kg, iv measured upto 24 hrs; format: ADME, organism-based; conditions: in vivo
[11] = Unbound volume of distribution at steady state in BALB/c mouse at 3 mg/kg, po and 1 mg/kg, iv measured upto 24 hrs; format: ADME, organism-based; conditions: in vivo
[12] = Toxicity in BALB/c nude mouse xenografted with human MOLM16 cells assessed as change in body weight at 0.3 to 3 mg/kg administered twice a day for 17 days; format: organism-based; conditions: in vivo, 408 h, dose 0.3-3 mg/kg, time 17 day
[13] = Oral bioavailability in Sprague-Dawley rat at 3 mg/kg measured upto 24 hrs; format: ADME, organism-based; conditions: in vivo, po, 3 mg/kg, 24 h

IC50 [1]: 5.2 µM | Papp A→B at 2 h, 5 µM [2]: 97 nm/s | CLH [3]: 3.5 µL/min | solubility thermodynamic at 24 h [6]: 1.8 µM (≈ 0.916 µg/mL) | fCmax [7]: 52 nM | CL free [8]: 4.2 L/h/kg | solubility thermodynamic at 24 h [9]: 0.89 µM (≈ 0.453 µg/mL) | half-life [10]: 10 h | fVdss [11]: 60 L/kg | F [13]: 29%
Compound: CNC(=O)c1ncn2cc(-c3c(F)ccc(NS(=O)(=O)c4cc(Cl)cnc4OC)c3F)ncc12
inhibition in vivo at 1 mg/kg [4]: 97% | inhibition in vivo at 3 mg/kg [5]: 98% | Activity [12]: Non-Toxic
